Values of other authors in patent publication EP0851285A1, “Photothermographic recording material coatable from an aqueous medium” (priority 1996, dated 1998).

Details: salts B

Compound | Solubility in water (at 15°C (cell overrides title's 20°C)) | Solubility in water at 20°C (20°C) [g/100mL water]
[Ag+].[Ag+].[O]=[W](=[O])([O-])[O-] [silver tungstate] | 0.05 (at 15°C) g/100mL water | 
O=P(=O)[O-].[Ag+] [silver metaphosphate] |  | 0.32
